US12714722B2, “Cancer combination therapies utilizing a nicotinamide phosphoribosyltransferase inhibitor in combination with a nicotinamide adenine dinucleotide salvage pathway precursor” (Fred Hutchinson Cancer Center, priority 2019, dated 2026)
“Also recorded” adds a separate entry of the source.

Assays:
[1] = tested on: GSCs (0131 and 0827) and control hNPC-CB660 cells; assay: Metabolic inhibitor library screen and retest, GSCs versus control neural stem cells; type: cell-based, human; settings: 48 hrs; Cell titerglo assay; n=3
Experimental: Example 1. To Identify New Metabolic Vulnerabilities in Human GSCs, a Chemical Library screen was performed using […] inhibitors of metabolic enzymes in two GSCs (0131 and 0827) and control hNPC-CB660 cells. […] To further explore this phenotype, an NAD salvage substrate, NMN was used, to bypass the requirement for NAMPT and rescue cytotoxicity. NMN is a substrate for the ectoenzyme CD73 (Ratajczak J et al., Nature communications. 2016; 7:13103), which generates NR, which is transported intracellular by equilibrative nucleoside transporters. (Nikiforov et al., J Biol Chem. 2011; 286(24):21767-78.) Intracellular NR is phosphorylated by NMRK in a NAMPT-independent NAD salvage pathway.
Methods. Cell culture. […]
Metabolic inhibitors screen protocol and data analysis. […] After 48 hours, cell viability was measured via Cell-Titer-Glo. […]

CB660 = assay: Cell viability (Cell-Titer-Glo), FK866 with or without NMN, in NSC-CB660; type: cell-based, human; design: key: +: indicates similar viability compared to parental cells in ″No drug control″; −: indicates significantly diminished viability (as determined by Student's t-test); settings: CB660 cells; FK-866 alone or with NMN
GSC 0131 NMRK1 KO = assay: Cell viability, FK866 with or without NMN, in GSC 0131 with NMRK1 knockout; type: cell-based, human; design: key to viability compared to No drug control: +: indicates similar viability compared to parental cells in ″No drug control″; −: indicates significantly diminished viability (as determined by Student's t-test)
Experimental: (§1) Methods. Cell culture. NSC and GSC lines were grown in NeuroCult NS-A basal medium (StemCell Technologies) supplemented with B27 (Thermo Fisher), N2 (2× stock in Advanced DMEM/F-12 (Fisher) with 25 μg/mL insulin (Sigma), 100 μg/mL apo-Transferrin (Sigma), 6 ng/mL progesterone (Sigma), 16 μg/mL putrescine (Sigma), 30 nM sodium selenite (Sigma), and 50 μg/mL bovine serum albumin (Sigma), and EGF and FGF-2 (20 ng/mL each) (Peprotech) on laminin (Sigma or Trevigen) coated polystyrene plates and passaged according to previously published protocols (Pollard et al., Cell Stem Cell. 2009; 4(6):568-80). Cells were detached from their plates using Accutase (Thermo Fisher). 293T (ATCC) cells were grown in 10% FBS/DMEM (Invitrogen).
(§2) In addition, knockout of NMRK1 in GSC 0131 cells should replicate the effect of FK866 seen in GSC 0827 cells.
NMRK1 knockout. Using nucleofection (4D-Nucleofector; Amaxa) in combination with Cas9:sgRNA complexes (Synthego). Using the Synthego prediction software, 3 synthetic sgRNA guides were generated to give indel formation within the NMRK1 transcript.
Synthetic guides were mixed with recombinant cas9 and nucleofected using an Amaxa 96-well nucleofection system. Indel formation was highest with guides 1 and 2, and lowest with guide 3. Combining guides 1 and 2 yielded >90% indel formation. […]

GSC 0131 = assay: Cell viability, FK866 with or without NMN, in GSC 0131; type: cell-based, human; design: key to viability compared to No drug control: +: indicates similar viability compared to parental cells in ″No drug control″; −: indicates significantly diminished viability (as determined by Student's t-test)
GSC 0827 = assay: Cell viability, FK866 with or without NMN, in GSC 0827 (NMRK1 low); type: cell-based, human; design: key to viability compared to No drug control: +: indicates similar viability compared to parental cells in ″No drug control″; −: indicates significantly diminished viability (as determined by Student's t-test); settings: for rescue of FK866-treated cells with NMN: GSC-0827 cells, in the presence of FK866
Experimental: as §1
Metabolic inhibitors screen protocol and data analysis. 230 metabolic inhibitors were screened in GSC lines (0131 and 827) and NSC CB660 cell line grown in 96-well optical bottom plates. After 24 hours, inhibitors were diluted in cell media and added to plated cells. Inhibitor concentration was based on IC 50 for the target enzymes, with 1× being the IC50 0.25× being the lower concentration and 5× being the higher concentration. Each concentration was tested in triplicate. After 48 hours, cell viability was measured via Cell-Titer-Glo. A z-score was established for each compound concentration, based on Untreated and Puromycin treated cells. Positive candidates were defined as compounds with a z-score less than that of CB660 cells. Positive candidates were rescreened to verify results.
NMN and NR Complementation studies. To verify if selectivity of NAMPT inhibition relied on downregulation of salvaging pathways, 827 cells were tested on cell viability in the presence of FK866 and the addition of NMN.

[2] = cited from earlier work
GSC 0827 + NMRK1 = assay: Cell viability, FK866 with or without NMN, in GSC 0827 ectopically expressing NMRK1; type: cell-based, human; design: key to viability compared to No drug control: +: indicates similar viability compared to parental cells in ″No drug control″; −: indicates significantly diminished viability (as determined by Student's t-test)
Experimental: as §1, §2
Cloning of NMRK1 ORF and NMRK1 complementation studies. […] This could be used as negative control for transfection purposes.
NMRK1 was then synthesized as a g-block based on HEK293T genomic DNA sequence:
Insertion of the purified product into vector was accomplished via Gibson assembly using NEB HiFi DNA Assembly Master Mix Kit with BamHI pre-cut pLX304 vector for expression in GBM cell lines.
Once cloned into the pLX304 backbone, the NMRK1 expressing plasmid was prepared for nucleofection and introduced into GBM 0827 cell lines. […]

SMILES	selectivity of cytotoxicity for GSCs over neural stem cells [1]	viability compared to No drug control (CB660)	viability compared to No drug control (GSC 0131 NMRK1 KO; GSC 0131 NMRK1 KO cells, FK-866 alone or with NMN)	viability compared to No drug control (GSC 0131; GSC 0131 cells, FK-866 alone or with NMN)	viability compared to No drug control (GSC 0827; GSC 0827 cells, FK-866 alone or with NMN)	rescue of FK866-treated cells with NMN (GSC 0827)	toxicity in clinical trials [2]	viability compared to No drug control (GSC 0827 + NMRK1; GSC 0827 + NMRK1 cells, FK-866 alone or with NMN)	rescue of FK866-treated cells with NMN (GSC 0131 NMRK1 KO; GSC-0131 cells with NMRK1 knockout, in the presence of FK866)	rescue of FK866-treated cells with NMN (GSC 0131; GSC-0131 cells, in the presence of FK866)	rescue of FK866-treated cells with NMN (GSC 0827 + NMRK1; GSC-0827 cells with ectopic NMRK1 expression, in the presence of FK866)
O=C(/C=C/c1cccnc1)NCCCCC1CCN(C(=O)c2ccccc2)CC1 [FK866, (E)-N-[4-(1-benzoyl-4-yl)-butyl]-3-(pyridin-3-yl) acrylamide]	GSC-selective cytotoxicity; also recorded: GSC and transformation specificity	+	−	−	−	remained exquisitely sensitive; also recorded: cannot be overcome	dose-limiting toxicities	−			
NC(=O)c1ccc[n+]([C@@H]2O[C@H](COP(=O)([O-])O)[C@@H](O)[C@H]2O)c1 [NMN, nicotinamide mononucleotide]						not			rescue was prevented	could be rescued; also recorded: sufficient to rescue; also recorded: can be complemented	sufficient to rescue; also recorded: demonstrated rescue; also recorded: allows utilization
